According to patent US20250171437A1 (Agios Pharmaceuticals,Inc., priority 2022, published 2025):

Target: T1, human PAH with the R408W mutation (A375 R408W cells) (Homo sapiens, UniProt P00439, R408W)
T1 construct: expressed in transfected cells
T1 sequence (P00439 1-452 R408W): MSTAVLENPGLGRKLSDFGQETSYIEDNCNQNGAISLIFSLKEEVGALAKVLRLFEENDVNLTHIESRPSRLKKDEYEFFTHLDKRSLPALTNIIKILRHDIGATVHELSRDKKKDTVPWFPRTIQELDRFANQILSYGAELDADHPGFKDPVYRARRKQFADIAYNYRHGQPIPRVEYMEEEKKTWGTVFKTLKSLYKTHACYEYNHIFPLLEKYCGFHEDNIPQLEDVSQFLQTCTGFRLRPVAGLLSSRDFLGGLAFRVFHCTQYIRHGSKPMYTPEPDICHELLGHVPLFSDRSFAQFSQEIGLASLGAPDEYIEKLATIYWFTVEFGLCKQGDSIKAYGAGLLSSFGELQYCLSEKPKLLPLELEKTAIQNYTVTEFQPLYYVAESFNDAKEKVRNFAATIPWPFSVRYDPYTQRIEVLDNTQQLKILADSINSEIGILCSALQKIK
Assay: Cell Based Phenylalanine Flux Assay
Details: A375 R408W cells; 24 hrs with compound, then 20 μM sepiapterin and 800 μM 13C9,15N-Phenylalanine for 4 hours; 13C-Tyrosine by LC-MS; average where tested multiple times
Procedure, shortened: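 AC50 is derived from LC-MS of 13C-tyrosine in the media after a 4 h pulse of 800 μM 13C9,15N-phenylalanine plus 20 μM sepiapterin. The A375 R408W PAH cells had received duplicate 10-point, 2-fold compound dilutions (0.5% DMSO) for 24 h beforehand.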

Row | Compound | AC50
1 | O=C(c1oc(C2CC2)nc1C(F)F)N1CCc2[nH]cnc2[C@H]1c1nc2cc(F)ccc2o1 [Example 53, (S)-(2-cyclopropyl-4-(difluoromethyl)oxazol-5-yl)(4-(5-fluorobenzo[d]oxazol-2-yl)-6,7-dihydro-1H-imidazo[4,5-c]pyridin-5(4H)-yl)methanone] | ≤ 500 nM
2 | O=C(c1oc(C2CC2)nc1C(F)F)N1CCc2[nH]cnc2[C@@H]1c1nc2cc(F)ccc2o1 [Example 54, (R)-(2-cyclopropyl-4-(difluoromethyl)oxazol-5-yl)(4-(5-fluorobenzo[d]oxazol-2-yl)-6,7-dihydro-1H-imidazo[4,5-c]pyridin-5(4H)-yl)methanone] | 500 to 1000 nM
3 | O=C(CC1(O)CCC1)N1CCc2[nH]cnc2[C@H]1c1nc2cc(F)ccc2o1 [Example 55, (S)-1-(4-(5-fluorobenzo[d]oxazol-2-yl)-6,7-dihydro-1H-imidazo[4,5-c]pyridin-5(4H)-yl)-2-(1-hydroxycyclobutyl)ethanone] | 500 to 1000 nM
4 | O=C(CC1(O)CCC1)N1CCc2[nH]cnc2[C@@H]1c1nc2cc(F)ccc2o1 [Example 56, (R)-1-(4-(5-fluorobenzo[d]oxazol-2-yl)-6,7-dihydro-1H-imidazo[4,5-c]pyridin-5(4H)-yl)-2-(1-hydroxycyclobutyl)ethanone] | 1000 to 5000 nM
5 | Cc1ccc2nc([C@@H]3c4nc[nH]c4CCN3C(=O)c3ocnc3C(F)(F)F)oc2c1 [Example 57, (S)-(4-(6-methylbenzo[d]oxazol-2-yl)-6,7-dihydro-1H-imidazo[4,5-c]pyridin-5(4H)-yl)(4-(trifluoromethyl)oxazol-5-yl)methanone] | ≤ 500 nM
6 | Cc1ccc2nc([C@H]3c4nc[nH]c4CCN3C(=O)c3ocnc3C(F)(F)F)oc2c1 [Example 58, (R)-(4-(6-methylbenzo[d]oxazol-2-yl)-6,7-dihydro-1H-imidazo[4,5-c]pyridin-5(4H)-yl)(4-(trifluoromethyl)oxazol-5-yl)methanone] | ≤ 500 nM
7 | O=C(CC1CC(F)C1)N1CCc2[nH]cnc2[C@H]1c1nc2cc(F)ccc2o1 (stereo partly drawn) [Example 59, (S)-1-(4-(5-fluorobenzo[d]oxazol-2-yl)-6,7-dihydro-1H-imidazo[4,5-c]pyridin-5(4H)-yl)-2-(3-fluorocyclobutyl)ethanone] | 500 to 1000 nM
8 | O=C(CC1CC(F)C1)N1CCc2[nH]cnc2[C@@H]1c1nc2cc(F)ccc2o1 (stereo partly drawn) [Example 60, (R)-1-(4-(5-fluorobenzo[d]oxazol-2-yl)-6,7-dihydro-1H-imidazo[4,5-c]pyridin-5(4H)-yl)-2-(3-fluorocyclobutyl)ethanone] | 1000 to 5000 nM
9 | O=C([C@@H]1CC1(F)F)N1CCc2[nH]cnc2[C@H]1c1nc2cc(F)ccc2o1 [Example 61, ((S)-2,2-difluorocyclopropyl)((S)-4-(5-fluorobenzo[d]oxazol-2-yl)-6,7-dihydro-1H-imidazo[4,5-c]pyridin-5(4H)-yl)methanone] | 500 to 1000 nM
10 | O=C([C@@H]1CC1(F)F)N1CCc2[nH]cnc2[C@@H]1c1nc2cc(F)ccc2o1 [Example 62, ((S)-2,2-difluorocyclopropyl)((R)-4-(5-fluorobenzo[d]oxazol-2-yl)-6,7-dihydro-1H-imidazo[4,5-c]pyridin-5(4H)-yl)methanone] | 1000 to 5000 nM
11 | Cc1ccc2oc([C@@H]3c4nc[nH]c4CCN3C(=O)c3ocnc3C(F)(F)F)nc2c1 [Example 63, (S)-(4-(5-methylbenzo[d]oxazol-2-yl)-6,7-dihydro-1H-imidazo[4,5-c]pyridin-5(4H)-yl)(4-(trifluoromethyl)oxazol-5-yl)methanone] | ≤ 500 nM
12 | Cc1ccc2oc([C@H]3c4nc[nH]c4CCN3C(=O)c3ocnc3C(F)(F)F)nc2c1 [Example 64, (R)-(4-(5-methylbenzo[d]oxazol-2-yl)-6,7-dihydro-1H-imidazo[4,5-c]pyridin-5(4H)-yl)(4-(trifluoromethyl)oxazol-5-yl)methanone] | ≤ 500 nM
13 | Cn1cc(-c2nnc(C(=O)N3CCc4[nH]cnc4[C@H]3c3nc4cc(F)ccc4o3)o2)cn1 [Example 67, (S)-(4-(5-fluorobenzo[d]oxazol-2-yl)-6,7-dihydro-1H-imidazo[4,5-c]pyridin-5(4H)-yl)(5-(1-methyl-1H-pyrazol-4-yl)-1,3,4-oxadiazol-2-yl)methanone] | 1000 to 5000 nM
14 | Cn1cc(-c2nnc(C(=O)N3CCc4[nH]cnc4[C@@H]3c3nc4cc(F)ccc4o3)o2)cn1 [Example 68, (R)-(4-(5-fluorobenzo[d]oxazol-2-yl)-6,7-dihydro-1H-imidazo[4,5-c]pyridin-5(4H)-yl)(5-(1-methyl-1H-pyrazol-4-yl)-1,3,4-oxadiazol-2-yl)methanone] | 1000 to 5000 nM

Other lines, results leading:

Row | AC50 | Compound
15 | 1000 to 5000 nM | CN1CCN(c2ccc3c(C(=O)N4CCc5[nH]cnc5[C@H]4c4nc5cc(F)ccc5o4)cnn3c2)CC1 [Example 65, (S)-(4-(5-fluorobenzo[d]oxazol-2-yl)-6,7-dihydro-1H-imidazo[4,5-c]pyridin-5(4H)-yl)(6-(4-methylpiperazin-1-yl)pyrazolo[1,5-a]pyridin-3-yl)methanone]
16 | ≥ 5000 nM | CN1CCN(c2ccc3c(C(=O)N4CCc5[nH]cnc5[C@@H]4c4nc5cc(F)ccc5o4)cnn3c2)CC1 [Example 66, (R)-(4-(5-fluorobenzo[d]oxazol-2-yl)-6,7-dihydro-1H-imidazo[4,5-c]pyridin-5(4H)-yl)(6-(4-methylpiperazin-1-yl)pyrazolo[1,5-a]pyridin-3-yl)methanone]
17 | 500 to 1000 nM | O=C(c1cnn2cc(Br)ccc12)N1CCc2[nH]cnc2[C@H]1c1nc2cc(F)ccc2o1 [Example 69, (S)-(6-bromopyrazolo[1,5-a]pyridin-3-yl)(4-(5-fluorobenzo[d]oxazol-2-yl)-6,7-dihydro-1H-imidazo[4,5-c]pyridin-5(4H)-yl)methanone]
18 | 1000 to 5000 nM | O=C(c1cnn2cc(Br)ccc12)N1CCc2[nH]cnc2[C@@H]1c1nc2cc(F)ccc2o1 [Example 70, (R)-(6-bromopyrazolo[1,5-a]pyridin-3-yl)(4-(5-fluorobenzo[d]oxazol-2-yl)-6,7-dihydro-1H-imidazo[4,5-c]pyridin-5(4H)-yl)methanone]
19 | 500 to 1000 nM | Cn1cc(-c2ccc3c(C(=O)N4CCc5[nH]cnc5[C@H]4c4nc5cc(F)ccc5o4)cnn3c2)cn1 [Example 71, (S)-(4-(5-fluorobenzo[d]oxazol-2-yl)-6,7-dihydro-1H-imidazo[4,5-c]pyridin-5(4H)-yl)(6-(1-methyl-1H-pyrazol-4-yl)pyrazolo[1,5-a]pyridin-3-yl)methanone]
20 | ≥ 5000 nM | Cn1cc(-c2ccc3c(C(=O)N4CCc5[nH]cnc5[C@@H]4c4nc5cc(F)ccc5o4)cnn3c2)cn1 [Example 72, (R)-(4-(5-fluorobenzo[d]oxazol-2-yl)-6,7-dihydro-1H-imidazo[4,5-c]pyridin-5(4H)-yl)(6-(1-methyl-1H-pyrazol-4-yl)pyrazolo[1,5-a]pyridin-3-yl)methanone]
21 | 500 to 1000 nM | COc1ccc2c(C(=O)N3CCc4[nH]cnc4[C@H]3c3nc4cc(F)ccc4o3)cnn2c1 [Example 73, (S)-(4-(5-fluorobenzo[d]oxazol-2-yl)-6,7-dihydro-1H-imidazo[4,5-c]pyridin-5(4H)-yl)(6-methoxypyrazolo[1,5-a]pyridin-3-yl)methanone]
22 | ≥ 5000 nM | COc1ccc2c(C(=O)N3CCc4[nH]cnc4[C@@H]3c3nc4cc(F)ccc4o3)cnn2c1 [Example 74, (R)-(4-(5-fluorobenzo[d]oxazol-2-yl)-6,7-dihydro-1H-imidazo[4,5-c]pyridin-5(4H)-yl)(6-methoxypyrazolo[1,5-a]pyridin-3-yl)methanone]
